This is an account of results in patent US20240254087A1, “SELECTIVE, PARTIAL, AND ARRESTIN-BIASED 5-HT2A AGONISTS WITH UTILITY IN VARIOUS DISORDERS” (Saint Joseph's University, priority 2021, published 2024).

Assay [1] has as its target T1, 5-HT2C (Homo sapiens, UniProt P28335).
T1 sequence (P28335 33-458): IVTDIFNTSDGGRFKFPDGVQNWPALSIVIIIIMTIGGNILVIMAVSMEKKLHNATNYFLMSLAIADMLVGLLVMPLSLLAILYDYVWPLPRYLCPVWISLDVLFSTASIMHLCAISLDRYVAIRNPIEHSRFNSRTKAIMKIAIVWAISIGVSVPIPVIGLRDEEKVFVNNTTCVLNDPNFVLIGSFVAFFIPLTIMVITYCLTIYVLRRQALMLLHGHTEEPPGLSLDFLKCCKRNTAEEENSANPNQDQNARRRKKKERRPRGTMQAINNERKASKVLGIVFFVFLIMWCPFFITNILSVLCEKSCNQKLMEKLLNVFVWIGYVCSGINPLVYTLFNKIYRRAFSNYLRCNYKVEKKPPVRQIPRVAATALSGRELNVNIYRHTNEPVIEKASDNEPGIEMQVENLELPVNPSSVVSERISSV
Nature of the assay: Ca2+ flux assay, 5-HT2C. The format is cell-based. Also on record: expressed in transfected cells.

The target in assay [2] is T2, 5-HT2B (Homo sapiens, UniProt P41595). Kind of assay: Ca2+ flux assay, 5-HT2B. To be noted: Ca2+ flux. The format is cell-based. Also on record: expressed in transfected cells.
A further assay addresses 5-HT1D (Homo sapiens, UniProt P28221). Nature of the assay: Competitive radioligand binding (NIMH PDSP). The procedure: (§1) Method 1: Competitive binding experiments were performed by the National Institute of Mental Health Psychoactive Drug Screening Program (NIMH PDSP) using described methods or 5-HT2A experiments performed using [3H]-ketanserin displacement in human 5-HT2A expressing membranes. Target compounds were dissolved in DMSO and an initial screen performed to assess displacement of the radioligand from target receptors at a concentration of 10,000 nM. […] For the Ki experiments, compounds were always tested in triplicate on separate plates. Each plate also contained a known ligand for the receptor as a positive control.

A further assay addresses 5-HT6 (Homo sapiens, UniProt P50406). Nature of the assay: Competitive radioligand binding (NIMH PDSP). On the procedure:
as §1

In the next assay the target is 5-HT1e (Homo sapiens, UniProt P28566). Nature of the assay: Competitive radioligand binding (NIMH PDSP). On the procedure: as §1
Another assay deals with 5-HT5a (Homo sapiens, UniProt P47898). Kind of assay: Competitive radioligand binding (NIMH PDSP). On the procedure:
as §1

A further assay has as its target T3, 5-HT3 (Homo sapiens, UniProt P46098).
T3 sequence (P46098 24-478): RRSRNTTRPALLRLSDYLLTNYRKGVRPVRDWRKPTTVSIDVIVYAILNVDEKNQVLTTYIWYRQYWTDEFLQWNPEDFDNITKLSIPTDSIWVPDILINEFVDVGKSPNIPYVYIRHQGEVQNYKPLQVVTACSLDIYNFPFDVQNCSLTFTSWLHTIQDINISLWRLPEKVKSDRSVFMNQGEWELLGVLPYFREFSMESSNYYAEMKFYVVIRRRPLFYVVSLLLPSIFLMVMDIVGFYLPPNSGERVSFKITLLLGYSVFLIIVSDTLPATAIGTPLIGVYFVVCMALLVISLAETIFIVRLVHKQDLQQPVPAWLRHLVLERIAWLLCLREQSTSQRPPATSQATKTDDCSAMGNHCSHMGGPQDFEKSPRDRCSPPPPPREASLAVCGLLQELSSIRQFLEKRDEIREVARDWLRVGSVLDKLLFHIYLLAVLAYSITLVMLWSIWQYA
Nature of the assay: Competitive radioligand binding (NIMH PDSP). On the procedure:
as §1

The target of the next assay is 5-HT7 (Homo sapiens, UniProt P34969). Kind of assay: Competitive radioligand binding (NIMH PDSP). On the procedure:
as §1

Assay [3] concerns the target T4, 5-HT2A (Homo sapiens, UniProt P28223). Nature of the assay: Competitive radioligand binding (NIMH PDSP). The procedure:
as §1

Another assay deals with 5-HT1B (Homo sapiens, UniProt P28222). Kind of assay: Competitive radioligand binding (NIMH PDSP). The procedure: as §1
Another assay has as its target T5, 5-HT1A (Homo sapiens, UniProt P08908).
T5 sequence (P08908 1-422): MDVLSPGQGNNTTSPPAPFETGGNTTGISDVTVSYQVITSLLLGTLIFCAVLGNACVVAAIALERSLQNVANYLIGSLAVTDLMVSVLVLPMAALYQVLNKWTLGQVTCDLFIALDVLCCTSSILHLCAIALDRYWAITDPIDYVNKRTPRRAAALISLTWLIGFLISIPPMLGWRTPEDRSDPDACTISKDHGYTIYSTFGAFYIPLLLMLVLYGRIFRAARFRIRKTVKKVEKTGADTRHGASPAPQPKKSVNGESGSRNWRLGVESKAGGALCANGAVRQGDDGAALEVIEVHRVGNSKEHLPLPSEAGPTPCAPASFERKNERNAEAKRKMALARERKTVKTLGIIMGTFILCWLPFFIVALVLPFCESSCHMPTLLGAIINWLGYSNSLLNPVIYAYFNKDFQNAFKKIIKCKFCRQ
Nature of the assay: Competitive radioligand binding (NIMH PDSP). On the procedure:
as §1

Assay [4] deals with T2, 5-HT2B. Kind of assay: Competitive radioligand binding (NIMH PDSP). Also on record: expressed in transfected cells. The procedure: as §1
For assay [5], the target named is T1, 5-HT2C. Nature of the assay: Competitive radioligand binding (NIMH PDSP). Also on record: expressed in transfected cells. On the procedure:
as §1

The target in assay [6] is T4, 5-HT2A. Kind of assay: Ca2+ flux assay, 5-HT2A. The assay is classed as cell-based. On the set-up: expressed in transfected cells.
Assay [7] deals with 5-HT2A. Nature of the assay: Ca2+ flux assay, 5-HT2A. The format is cell-based, human. The conditions noted are these: Gq/11 Ca2+ mobilization; higher number = skewed towards 5-HT2A.
The next assay concerns mice. Nature of the assay: PCP-induced locomotor hyperactivity. The conditions noted are these: PCP 5 mg/kg IP, 25N-N1-Nap 3 mg/kg SC, M100907 0.03 mg/kg SC. The format is in vivo, mouse. On the procedure:
(A). DOI, a hallucinogen and 5-HT2A agonist, was administered IP 10 min after SC administration of vehicle or test drug. A and then HTR activity was assessed for 30 minutes. *p<0.001, significant difference vs. vehicle (B). Vehicle or the NMDA receptor antagonist PCP (5 mg/kg) was injected IP 10 min after SC administration of vehicle or 25N-NB1-Nap (16), and then the mice were placed in the test chambers 10 min later for a 60-min assessment of locomotor activity. (C). […] Mice were treated with vehicle or M100907 (0.03 mg/kg SC) 10 min prior to vehicle or PCP (5 mg/kg IP): animals were placed in the test chambers 10 min after treatment with PCP. Animals were tested for 60 min. *p<0.01 vs. vehicle: ^#p<0.01 vs. PCP alone.
Male C57BL/6J mice (6-8 weeks old) from Jackson Labs (Bar Harbor, ME, USA) were used for the behavioral experiments. The mice were housed on a reversed light-dark cycle (lights on at 1900 h, off at 0700 h) in an AAAC-approved vivarium at the University of California San Diego. Mice were housed up to four per cage in a climate-controlled room and with food and water provided ad libitum except during behavioral testing. Testing was performed between 1000 and 1800 h (during the dark phase of the light-dark cycle). The studies were conducted in accordance with National Institutes Health (NIH) guidelines and were approved by the University of California San Diego Institutional Animal Care and Use Committee.
Edelfosine, DOI, R—(−)-DOI, and PCP were injected IP (5 mL/kg): 25N—NB and its derivatives were injected SC (5 mL/kg or 10 mL/kg): YM-254,890 was injected into the lateral ventricle (2 μL) over 1 min.
The mouse behavioral pattern monitor (BPM) was used to assess locomotor activity. Each mouse BPM chamber (San Diego Instruments, San Diego, CA, USA) is a transparent Plexiglas box with an opaque 30×60 cm floor, enclosed in a ventilated isolation box. The position of the mouse in x.y coordinates is recorded by a grid of 12×24 infrared photobeams located 1 cm above the floor. A second row of 16 photobeams (parallel to the long axis of the chamber, located 2.5 cm above the floor) is used to detect rearing behavior. Holepoking behavior is detected by 11 1.4-cm holes that are situated in the walls (3 holes in each long wall, 2 holes in each short wall) and the floor ([…]); each hole is equipped with an infrared photobeam. The status of each photobeam is sampled every 55 ms and recorded for offline analysis. Locomotor activity was quantified as distance traveled, which was analyzed in 20-min blocks using a three-way ANOVA, with pretreatment and treatment as between subject variables and time as a within-subject variable. Tukey's studentized range method was used for post hoc comparisons.

The target in assay [8] is T4, 5-HT2A. Kind of assay: cell-based. On the set-up: expressed in transfected cells; host or cells: HEK293T, transient. To be noted: for Emax: read-out: 5-HT2A β-arrestin Emax (% 5-HT), BRET, mean ± SEM.
Assay [9] has as its target T4, 5-HT2A. Nature of the assay: [3H]-ketanserin displacement, 5-HT2A membranes. The format is binding. Also on record: ES-313-M400UA (membranes); host or cells: CHO-K1. The conditions noted are these: [3H]-ketanserin displacement (n = 2); read-out: 5-HT2A pKi Mean ± SEM (converted).
Assay [10] deals with T4, 5-HT2A. Kind of assay: cell-based. The conditions noted are these: for Emax: read-out: 5-HT2A Gq Emax (% 5-HT), BRET, mean ± SEM. Also on record: expressed in transfected cells; host or cells: HEK293T, transient.
Where [11] appears, read: BRET, mean ± SEM, read-out: 5-HT2A β-arrestin recruitment pEC50 (converted).
The mark [12] stands for this setting: BRET, mean ± SEM, read-out: 5-HT2A Gq dissociation pEC50 (converted).

Structures are written as SMILES.

T4 sequence (P28223 whole entry): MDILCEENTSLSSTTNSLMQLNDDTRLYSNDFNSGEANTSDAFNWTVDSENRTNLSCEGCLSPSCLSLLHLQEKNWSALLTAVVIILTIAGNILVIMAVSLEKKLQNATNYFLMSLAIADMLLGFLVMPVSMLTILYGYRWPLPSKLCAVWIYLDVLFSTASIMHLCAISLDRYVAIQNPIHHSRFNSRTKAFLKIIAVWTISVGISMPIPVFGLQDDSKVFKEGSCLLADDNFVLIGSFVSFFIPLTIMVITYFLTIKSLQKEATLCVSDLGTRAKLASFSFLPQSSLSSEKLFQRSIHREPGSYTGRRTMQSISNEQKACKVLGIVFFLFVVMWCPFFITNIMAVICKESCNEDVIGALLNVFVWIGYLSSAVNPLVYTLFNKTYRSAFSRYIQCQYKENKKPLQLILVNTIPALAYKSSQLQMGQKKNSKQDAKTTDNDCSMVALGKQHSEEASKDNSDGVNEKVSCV
T2 sequence (P41595 whole entry): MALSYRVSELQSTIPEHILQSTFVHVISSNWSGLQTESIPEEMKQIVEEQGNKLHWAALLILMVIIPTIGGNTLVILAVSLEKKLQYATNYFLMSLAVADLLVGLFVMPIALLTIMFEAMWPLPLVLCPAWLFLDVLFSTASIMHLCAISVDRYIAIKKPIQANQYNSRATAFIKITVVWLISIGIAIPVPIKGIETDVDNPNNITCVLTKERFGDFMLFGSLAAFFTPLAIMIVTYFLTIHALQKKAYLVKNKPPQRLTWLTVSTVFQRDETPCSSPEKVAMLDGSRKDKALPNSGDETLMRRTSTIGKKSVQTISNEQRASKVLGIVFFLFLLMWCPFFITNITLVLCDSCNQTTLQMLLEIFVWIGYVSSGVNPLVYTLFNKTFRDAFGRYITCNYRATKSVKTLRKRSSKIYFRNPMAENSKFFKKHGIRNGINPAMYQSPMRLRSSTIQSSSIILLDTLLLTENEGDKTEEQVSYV
5-HT6, sequence (P50406 whole entry, species assumed): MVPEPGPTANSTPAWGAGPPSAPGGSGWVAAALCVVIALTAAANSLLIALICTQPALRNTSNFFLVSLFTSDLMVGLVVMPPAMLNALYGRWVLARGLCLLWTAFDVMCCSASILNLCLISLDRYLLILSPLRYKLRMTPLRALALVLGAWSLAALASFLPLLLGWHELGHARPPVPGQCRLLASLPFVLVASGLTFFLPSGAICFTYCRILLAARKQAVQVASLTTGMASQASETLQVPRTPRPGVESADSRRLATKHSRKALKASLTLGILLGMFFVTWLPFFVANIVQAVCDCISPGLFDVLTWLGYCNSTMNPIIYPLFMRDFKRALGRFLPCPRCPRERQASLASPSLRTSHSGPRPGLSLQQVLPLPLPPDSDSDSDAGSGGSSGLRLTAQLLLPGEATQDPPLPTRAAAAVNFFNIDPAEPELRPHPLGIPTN
5-HT1e, sequence (P28566 whole entry, species assumed): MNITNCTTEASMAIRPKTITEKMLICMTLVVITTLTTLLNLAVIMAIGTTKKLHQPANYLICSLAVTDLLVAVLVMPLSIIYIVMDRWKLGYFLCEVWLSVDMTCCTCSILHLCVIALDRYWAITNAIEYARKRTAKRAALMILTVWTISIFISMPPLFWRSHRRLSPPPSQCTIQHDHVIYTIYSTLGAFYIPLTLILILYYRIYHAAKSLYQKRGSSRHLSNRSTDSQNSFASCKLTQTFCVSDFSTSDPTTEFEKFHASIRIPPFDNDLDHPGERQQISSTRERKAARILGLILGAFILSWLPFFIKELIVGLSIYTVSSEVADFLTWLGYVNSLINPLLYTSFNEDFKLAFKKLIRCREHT
5-HT1D, sequence (P28221 whole entry, species assumed): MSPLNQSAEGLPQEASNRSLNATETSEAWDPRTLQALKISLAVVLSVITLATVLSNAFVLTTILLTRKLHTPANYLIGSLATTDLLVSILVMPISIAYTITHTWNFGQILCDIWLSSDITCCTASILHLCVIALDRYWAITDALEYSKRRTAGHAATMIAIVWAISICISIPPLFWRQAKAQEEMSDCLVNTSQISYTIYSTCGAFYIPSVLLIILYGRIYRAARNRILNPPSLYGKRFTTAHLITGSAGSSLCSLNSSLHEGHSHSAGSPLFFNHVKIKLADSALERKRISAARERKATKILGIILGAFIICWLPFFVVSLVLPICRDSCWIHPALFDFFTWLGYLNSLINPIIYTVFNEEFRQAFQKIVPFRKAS
5-HT7, sequence (P34969 whole entry, species assumed): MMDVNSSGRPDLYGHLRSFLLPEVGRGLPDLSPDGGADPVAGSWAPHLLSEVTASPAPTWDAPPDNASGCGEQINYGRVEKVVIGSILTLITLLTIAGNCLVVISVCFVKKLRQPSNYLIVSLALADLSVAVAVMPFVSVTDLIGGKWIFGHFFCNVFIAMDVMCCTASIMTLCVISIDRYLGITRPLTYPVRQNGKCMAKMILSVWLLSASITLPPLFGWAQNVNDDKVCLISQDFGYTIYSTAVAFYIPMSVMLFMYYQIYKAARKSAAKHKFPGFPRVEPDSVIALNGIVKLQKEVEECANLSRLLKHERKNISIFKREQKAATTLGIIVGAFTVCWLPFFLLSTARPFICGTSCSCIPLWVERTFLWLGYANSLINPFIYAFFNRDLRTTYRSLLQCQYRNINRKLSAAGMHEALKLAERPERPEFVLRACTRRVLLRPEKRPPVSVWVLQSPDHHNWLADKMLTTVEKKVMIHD
5-HT5a, sequence (P47898 whole entry, species assumed): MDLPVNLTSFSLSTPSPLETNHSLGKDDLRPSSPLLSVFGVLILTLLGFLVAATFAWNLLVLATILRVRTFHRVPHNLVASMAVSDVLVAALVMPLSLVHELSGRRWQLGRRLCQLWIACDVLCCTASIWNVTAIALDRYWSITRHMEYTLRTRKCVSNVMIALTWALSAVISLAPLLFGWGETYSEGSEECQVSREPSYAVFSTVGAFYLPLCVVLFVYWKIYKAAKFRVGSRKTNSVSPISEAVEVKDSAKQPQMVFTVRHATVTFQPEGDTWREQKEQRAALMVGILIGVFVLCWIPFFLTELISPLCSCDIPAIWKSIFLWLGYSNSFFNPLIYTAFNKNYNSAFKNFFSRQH
5-HT1B, sequence (P28222 whole entry, species assumed): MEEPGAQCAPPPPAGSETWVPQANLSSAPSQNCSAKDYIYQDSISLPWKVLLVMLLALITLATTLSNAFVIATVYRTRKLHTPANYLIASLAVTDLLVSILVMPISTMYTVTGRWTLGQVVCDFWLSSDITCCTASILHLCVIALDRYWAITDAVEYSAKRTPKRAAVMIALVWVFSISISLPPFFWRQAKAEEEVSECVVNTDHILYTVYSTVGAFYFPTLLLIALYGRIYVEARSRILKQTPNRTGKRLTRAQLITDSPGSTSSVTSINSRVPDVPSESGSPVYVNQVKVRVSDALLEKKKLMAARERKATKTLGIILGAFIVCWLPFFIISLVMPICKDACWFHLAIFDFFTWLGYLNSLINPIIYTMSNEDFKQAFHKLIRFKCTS

For `COc1ccc(OC)c(CNCCc2cc(OC)c([N+](=O)[O-])cc2OC)c1` [25N-NB-2,5-DiMeO (20)], at 5-HT2C [1], the “5-HT2C EC50, nM” value is “No activity”. Further, the Emax at 5-HT2C [1] (read-out: 5-HT2C Emax % 5-HT) was less than 10%; on 5-HT2B [2] (read-out: 5-HT2B Emax % 5-HT) it was less than 10%; at 5-HT2A [6] (read-out: 5-HT2A Emax % 5-HT, Ca2+ flux), 72 ± 1%. For the same compound, the “5-HT2B EC50, nM” value at 5-HT2B [2] is on record as “No activity”. In addition, the Ki at 5-HT1D, at 5-HT6, on 5-HT1e, on 5-HT5a, on 5-HT3 and at 5-HT7 was greater than 10 µM in each case. Also, the Ki on 5-HT2A [3] was 229 nM; at 5-HT1B, greater than 10 µM; at 5-HT1A, 513 nM; on 5-HT2B [4], 135 nM; at 5-HT2C [5], 145 nM. Besides, the EC50 on 5-HT2A [6] (5-HT2A EC50, nM, Ca2+ flux) amounted to 133 nM. Besides, the “5-HT2A/5-HT2c Selectivity Factor ΔLog(Emax/EC50)” value in the assay with 5-HT2A [7] was 5-HT2A Selective.
In the case of `COc1cccc([C@H](O)C2CCN(CCc3ccc(F)cc3)CC2)c1OC` [Compound M100907, reference compound], the “Effect on PCP-induced locomotor hyperactivity” value with mice is listed as “blocks PCP induced hyperactivity”; with mice (listed as M100,907), “blocked”.
Turning to `COc1cc(OC)c(OC)cc1CCNCc1cccc(I)c1F` [(72)], the EC50 on 5-HT2A [8] (setting [11]) was 7.08 nM; at 5-HT2A [10] (setting [12]), 33.9 nM. Further, the values for the Emax at 5-HT2A [8] and at 5-HT2A [10] were 63.5 ± 3.2% and 60.7 ± 1.7%, respectively. The Ki at 5-HT2A [9] was 49 nM.
With `COc1cc(OC)c(OC)cc1CCNCc1cccc(C(C)(C)C)c1` [(71)], the EC50 on 5-HT2A [8] (setting [11]) and on 5-HT2A [10] (setting [12]) was 1620 nM throughout. Further, the Emax on 5-HT2A [8] is 60.4 ± 5.2%; on 5-HT2A [10] it was 38.6 ± 5%. In addition, the Ki on 5-HT2A [9] was 380 nM.
Take `COc1cc(OC)c(OC)cc1CCNCc1cccc(C)c1O` [(68)]: the values for the EC50 on 5-HT2A [8] (setting [11]) and on 5-HT2A [10] (setting [12]) were 1.41 nM and 3.24 nM, respectively. Also, the maximum response (Emax) amounted to 89.1 ± 2.3% on 5-HT2A [8] and 63.4 ± 0.8% on 5-HT2A [10]. Moreover, the Ki on 5-HT2A [9] is 30.9 nM.
`COc1cc(OC)c(OC)cc1CCNCc1c[nH]nc1-c1ccccc1` [(80)]: the values for the EC50 at 5-HT2A [8] (setting [11]) and at 5-HT2A [10] were 79.4 nM and 537 nM, respectively. Also, the Emax at 5-HT2A [8] came to 102 ± 3.7%; at 5-HT2A [10], 31.8 ± 2.3%. Besides, on 5-HT2A [9], the Ki was 302 nM.
As for `COc1cc(OC)c(OC)cc1CCNCc1ccc(-c2cccs2)s1` [(77)], the Emax came to 82.5 ± 4.2% on 5-HT2A [8] and 49 ± 5.1% at 5-HT2A [10]. The Ki on 5-HT2A [9] was 324 nM.
In the case of `COc1cccc(COc2ccccc2CNCCc2cc(OC)c(OC)cc2OC)c1` [(79)], on 5-HT2A [8], the EC50 was 1120 nM and the Emax was 33 ± 4.8%. Also, the Ki at 5-HT2A [9] was 158 nM. The “5-HT2A Gq dissociation pEC50” value at 5-HT2A [10] (BRET, mean ± SEM) is “No activity”. Moreover, the Emax on 5-HT2A [10] is less than 10%.
With `COc1cc(OC)c(OC)cc1CCNCc1ccccc1C1CC1` [(70)], the values for the EC50 on 5-HT2A [8] (setting [11]) and on 5-HT2A [10] (setting [12]) were 6.92 nM and 3.63 nM, respectively. For the same compound, the Emax on 5-HT2A [8] is 116 ± 4.4%; at 5-HT2A [10] it was 97.5 ± 1.5%. Moreover, the Ki on 5-HT2A [9] is 70.8 nM.
The corresponding values for `COc1cc(OC)c(OC)cc1CCNCc1ccc(F)c2ccccc12` [(67)] are 10.2 nM, 22.9 nM, 73.6 ± 3.2%, 41 ± 1.3% and 50.1 nM.
